Where no end group is shown, it is not given here.
Tests used:
[1] = system: healthy wild-type mice; assay: Exogenous methylglyoxal induces thermal hyperalgesia in vivo (hot plate)
Protocol: Hyperalgesia was studied using the hot-plate assay with an electronically controlled hot-plate analgesia meter (Columbus Instructments, Columbus, Ohio) at 50° C.. Each mouse was removed from the hot plate when a jumping escape response occurred or hind paws were licked, or after a maximal cut-off time of 60 seconds. […] Three measurements were taken per animal at each of the specified time points and averaged. The difference in latency times between control and treated animals, was calculated as a measure of hyperalgesia. Healthy wild-type mice (Male; 10-12 weeks) were treated with various concentrations of methylglyoxal (0.7 μM-700 μM) by intravenous injection as 0.9% NaCl solution. Control groups were injected with 0.9% NaCl solution. After 3 hrs incubation time, hyperalgesia was assessed.

[2] = Plasma methylglyoxal measurement after i.v. injection of MG (HPLC); assay type: in vivo, mice; conditions: male, wild-type, mouse, iv, 5 μg MG i.v., within 10 min, read-out: plasma MG levels
Protocol: (B) 5 μg ([…]) MG was administered by i. v. injection as 0.9% NaCl solution to male healthy wild-type mice (10-12 weeks old) and MG-plasma concentrations were determined by HPLC at time point Oh, 10 min, 30 min, 1 h and 3 h. Data represent mean±SD (n=3 per time point).
(§1) The concentration of methylglyoxal in mouse plasma samples was determined by derivatization with 1,2-diamino-4,5-dimethoxybenezene using a previously described method. Blood samples were drawn into EDTA containing tubes from the retrobulbar vessels at time of sacrifice and centrifuged (2000 g; 5 mins). Plasma was removed and acidified with 10% TCA (0.1 ml). Samples were either analyzed immediately or stored at −80° C.

[3] = system: diabetes induced hyperalgesia in diabetic wild-type mice; assay: Diabetes induced hyperalgesia, hot-plate assay in STZ-induced diabetic wild-type mice; assay type: in vivo
Protocol: Diabetic wildtype mice (Male; 18 wks) were injected with either 1 mg GERP or GEAP i.p. Following 1 day of treatment with either peptide, treatment was discontinued, after which consecutive measurements of hyperalgesia were performed to determine biological half-life of the peptide. This was determined to be ca. 80 hrs. Data represent the mean±SEM (N=10), ***P<0.0001, **P<0.001, *P<0.05, NSP>0.05 vs. GERP or GEAP control at respective time point; 000P<0.0001, NSP>0.05 vs. day 0.
Diabetes was induced by i.p. administration of STZ at 60 mg/kg, freshly dissolved in sterile sodium citrate (0.05M, pH4.5) on 6 subsequent days. Control animals received sodium citrate only. Diabetes was verified 16-25 days later by measurement of blood glucose levels in samples from the tail vein using ACCU-CHEK glucose sticks and a conventional Accutrend glucometer. In the first 2 weeks following the onset of diabetes, blood glucose was measured daily. If glucose levels occasionally recovered, an additional STZ injection was given on day 25-27. More than 90% of mice became diabetic within the first 4 weeks and were used throughout the experiment. As soon as blood glucose increased above 300 mg/dl, individual supplementation with 1-2 U Insulin Semilenta (40 U/ml) was started. Once glucose levels had stabilized, blood glucose was determined at least once a week for the first 2 months, and thereafter every second week. Tight blood glucose control kept individual blood glucose level stable throughout the experiments. At the end of the experiments, mice were sacrificed with CO2, and both sciatic nerves dissected, weighed and snap-frozen in liquid nitrogen.
(§2) Hyperalgesia was studied using the hot-plate assay with an electronically controlled hot-plate analgesia meter (Columbus Instructments, Columbus, Ohio) at 50° C.. Each mouse was removed from the hot plate when a jumping escape response occurred or hind paws were licked, or after a maximal cut-off time of 60 seconds. […] Three measurements were taken per animal at each of the specified time points and averaged. The difference in latency times between control and treated animals, was calculated as a measure of hyperalgesia.
To determine the effect of GERP on diabetes induced hyperalgesia, STZ-induced diabetic wild-type mice (Male; 18 wks) were injected intraperitioneal with either 1 mg of GERP001 or GEAP. After 24 hrs, hyperalgesia was assessed by hotplate assay.

[4] = system: methylglyoxal-induced hyperalgesia in healthy wild-type mice; assay: Methylglyoxal-induced hyperalgesia, hot-plate assay (in vivo scavenging of methylglyoxal); conditions: 1 mg i.p., MG 70 μM, FIG. 6A
Protocol: Healthy wildtype mice (10-12 weeks), were injected with 1 mg GERP (≡1.096×1015 Arg residues) or control peptide GEAP; i.p. 30 mins prior to injection with methylglyoxal (MG; 70 μM). Hyperalgesia was assessed 3 hrs after i.p injection by hot-plate assay. Data represent mean±SEM (N=10). GERP reduced methylglyoxal-induced hyperalgesia by ca. 60% in healthy wildtype mice, whereas the control peptide had no effect, showing that scavanging of methylglyoxal reduced hyperalgesia.
as §2
A synthetic peptide, GERP001, containing ten arginine residues per molecule act as an effective in vivo scavenger of methylglyoxal was designed in house and synthesized (GenWay Biotech, Inc. San Diego, Calif., USA). […] Hyperalgesia was assessed 3 hrs after administration of methylglyoxal.

[5] = biological target: T1, glyoxalase-I (Mus musculus, UniProt Q9CPU0); assay: In vivo inhibition of Glyoxalase I in healthy wild-type mice
T1 construct: Healthy wild-type mice (Male); from tissue
T1 sequence (Q9CPU0 2-184 limits assumed): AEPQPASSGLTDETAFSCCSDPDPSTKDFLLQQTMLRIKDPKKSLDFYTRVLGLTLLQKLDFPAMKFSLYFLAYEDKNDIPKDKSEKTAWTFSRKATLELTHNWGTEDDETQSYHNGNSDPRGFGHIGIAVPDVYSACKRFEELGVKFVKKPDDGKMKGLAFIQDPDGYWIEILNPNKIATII
Protocol: (A) Inhibition of Glyoxalase I by the cell permeable inhibitor S-p-Bromobenzylglutathione Cyclopentyl diester in male healthy wild-type mice (10-12 weeks old). Hyperalgesia was assessed by the hot plate assay at day 0 before application of the inhibitor. Thereafter, consecutive assessments of thermal hyperalgesia were made at selected time points (black circles), at which some mice also were sacrificed and plasma isolated for the determination of MG concentration (open circles). Data represent mean±SD (n=3 per time point). Different approaches were utilized to verify the hypothesized threshold-dependent effect of the MG/glyoxalase-system on hyperalgesia.
as §2, §1
Healthy wild-type mice (Male; 10-12 weeks) were pretreated for 48 hrs with 50 μg/g (i.p) of the cell permeable Glyoxalase I inhibitor, S-p-Bromobenzylglutathioine Cyclopentyl diester. After 48 hrs, hyperalgesia was assessed. Mice were then treated every 2nd day for a period of 15 days, during which consecutive assessments of hyperalgesia were made. At selected time points, mice sacrificed, and plasma isolated for determination of methylglyoxal concentration.

CC(=O)C=O [MG, 2-oxo-propanal]
persistence of MG-induced changes resulting in hyperalgesia ([1]; after MG application, data not shown): more than 3 hours
plasma MG level needed for dose-dependent hyperalgesia (threshold concentration) ([1]; plasma MG at 15 min after MG application): exceeded 600 nM
induction of heat hyperalgesia ([1]; systemic (i.v.) MG, 3 h after MG injection, hot plate): significant and dose-dependent induction of heat hyperalgesia
concentration at 10 min [2]: > 800 nM

GEAP: a control peptide in which the arginine residues were substituted for alanine (HHHHHHGGGGGEPGEPGEPGEPGEPGEPGEPGEPGEPGEP; GEAP motif containing peptide)
effect on thermal hyperalgesia in diabetic mice ([3]; mice after 8 weeks of diabetes with manifest hyperalgesia, 1 mg i.p., FIG. 6C): no effect
effect on thermal hyperalgesia in MG-treated healthy wild-type mice [4]: no effect

NC(CCC(=O)NC(CSCc1ccc(Br)cc1)C(=O)NCC(=O)OC1CCCC1)C(=O)OC1CCCC1 (stereo not drawn) [S-p-Bromobenzylglutathione Cyclopentyl diester]
glyoxalase-I enzymatic activity ([5]; 3 days after continuous inhibitor administration, injected every second day): fully inhibited
MG plasma concentration ([5]; 6 days after initiation of treatment): exceeded 600 nM
thermal hyperalgesia ([5]; 6 days after initiation of treatment, hot plate): significant thermal hyperalgesia

HHHHHHGGGGGERPGERPGERPGERPGERPGERPGERPGERPGERPGERP [GERP001]
physiological / biological effective half-life ([3]; diabetic mice, 1 mg i.p., after treatment discontinued, regression analysis, linear decay model): ca. 80 hrs
biological effective half-life (preliminary experiments) ([3]; preliminary experiments, data fitted to an exponential decay (R2=0.9734)): ca. 13 hrs
half-life of the effect of a single injection ([3]; single injection (1 mg)): 80 h

Reference: patent US8609810B2, “Methylglyoxal-scavenging compounds and their use for the prevention and treatment of pain and/or hyperalgesia” (Ruprecht-Karls-Universitat Heidelberg, priority 2009, dated 2013)
